Measured values as given in ChEMBL document CHEMBL1201862, “PubChem BioAssay data set” (2004).
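How tested: cells in 96-well plates exposed to compound for 48 hours at five concentrations. The concentration for 50% growth inhibition is given as GI50.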 The source made the active and inactive calls. Cut-off read from the data, not from the text of the source: active = GI50 up to about 1.1 µM and inactive = higher.

Columns and labels:
Assay in all cases: inhibition of tumour cell growth, NCI panel, 48 h
[1] = tested on: SN12C
[2] = tested on: HCT-15
[3] = tested on: 786-0
[4] = tested on: RXF 393
[5] = tested on: IGROV-1
[6] = tested on: CCRF-CEM
[7] = tested on: Hs-578T
[8] = tested on: HOP-92
[9] = tested on: KM12
[10] = tested on: SR
[11] = tested on: A549
[12] = tested on: NCI-H23
[13] = tested on: COLO 205
[14] = tested on: OVCAR-5
[15] = tested on: TK-10
[16] = tested on: HT-29
[17] = tested on: SK-MEL-28
[18] = tested on: T47D
[19] = tested on: Malme-3M
[20] = tested on: HL-60
[21] = tested on: DU-145
[22] = tested on: HCC 2998
[23] = tested on: EKVX
[24] = tested on: A498
[25] = tested on: PC-3
[26] = tested on: OVCAR-4
[27] = tested on: SW-620
[28] = tested on: SNB-19
[29] = tested on: RPMI-8226
[30] = tested on: MDA-MB-231
[31] = tested on: M14
[32] = tested on: MOLT-4
[33] = tested on: SF-268
[34] = tested on: SK-OV-3
[35] = tested on: LOX IMVI
[36] = tested on: MDA-N
[37] = tested on: NCI-H226
[38] = tested on: K562
[39] = tested on: SK-MEL-2
[40] = tested on: OVCAR-3
[41] = tested on: UACC-62
[42] = tested on: OVCAR-8
[43] = tested on: UACC-257
[44] = tested on: U-251
[45] = tested on: HCT-116
[46] = tested on: ACHN
[47] = tested on: CAKI-1
[48] = tested on: NCI-H460
[49] = tested on: SK-MEL-5
[50] = tested on: NCI/ADR-RES
[51] = tested on: SF-295
[52] = tested on: SF-539
[53] = tested on: MCF7
[54] = tested on: MDA-MB-435
[55] = tested on: UO-31
[56] = tested on: BT-549
[57] = tested on: NCI-H522
[58] = tested on: SNB-75
[59] = tested on: HOP-62

Cc1ccc(-c2cc(-c3c(C)nn(C)c(=O)c3N)n[nH]2)cc1
GI50 [1]: > 100 µM (inactive)
GI50 [2]: > 100 µM
GI50 [3]: > 100 µM (inactive)
GI50 [4]: > 100 µM (inactive)
GI50 [5]: > 100 µM (inactive)
GI50 [6]: > 100 µM (inactive)
GI50 [7]: > 100 µM (inactive)
GI50 [8]: > 100 µM (inactive)
GI50 [9]: > 100 µM (inactive)
GI50 [10]: > 100 µM (inactive)
GI50 [11]: > 100 µM (inactive)
GI50 [12]: > 100 µM (inactive)
GI50 [13]: > 100 µM (inactive)
GI50 [14]: > 100 µM (inactive)
GI50 [15]: > 100 µM (inactive)
GI50 [16]: > 100 µM (inactive)
GI50 [17]: > 100 µM (inactive)
GI50 [18]: 53.5 µM (inactive)
GI50 [19]: > 100 µM (inactive)
GI50 [20]: > 100 µM (inactive)
GI50 [21]: > 100 µM (inactive)
GI50 [22]: > 100 µM (inactive)
GI50 [23]: 83 µM (inactive)
GI50 [24]: 28.5 µM (inactive)
GI50 [25]: > 100 µM (inactive)
GI50 [26]: > 100 µM (inactive)
GI50 [27]: > 100 µM (inactive)
GI50 [28]: > 100 µM (inactive)
GI50 [29]: 99.1 µM (inactive)
GI50 [30]: > 100 µM (inactive)
GI50 [31]: > 100 µM (inactive)
GI50 [32]: > 100 µM (inactive)
GI50 [33]: > 100 µM (inactive)
GI50 [34]: > 100 µM (inactive)
GI50 [35]: > 100 µM (inactive)
GI50 [36]: > 100 µM (inactive)
GI50 [37]: > 100 µM (inactive)
GI50 [38]: > 100 µM (inactive)
GI50 [39]: > 100 µM (inactive)
GI50 [40]: 88.3 µM (inactive)
GI50 [41]: > 100 µM (inactive)
GI50 [42]: > 100 µM (inactive)
GI50 [43]: > 100 µM (inactive)
GI50 [44]: > 100 µM (inactive)
GI50 [45]: > 100 µM (inactive)
GI50 [46]: > 100 µM (inactive)
GI50 [47]: > 100 µM (inactive)
GI50 [48]: > 100 µM (inactive)
GI50 [49]: > 100 µM (inactive)
GI50 [50]: > 100 µM (inactive)
GI50 [51]: > 100 µM (inactive)
GI50 [52]: > 100 µM (inactive)
GI50 [53]: > 100 µM (inactive)
GI50 [54]: > 100 µM (inactive)

CCNCCC1(CC)C(=O)NC(=O)NC1=O
GI50 [1]: > 100 µM (inactive)
GI50 [2]: > 100 µM
GI50 [55]: > 100 µM (inactive)
GI50 [3]: > 100 µM (inactive)
GI50 [4]: > 100 µM (inactive)
GI50 [5]: > 100 µM (inactive)
GI50 [7]: > 100 µM (inactive)
GI50 [8]: > 100 µM (inactive)
GI50 [9]: > 100 µM (inactive)
GI50 [10]: > 100 µM (inactive)
GI50 [11]: > 100 µM (inactive)
GI50 [56]: > 100 µM (inactive)
GI50 [12]: > 100 µM (inactive)
GI50 [13]: > 100 µM (inactive)
GI50 [14]: > 100 µM (inactive)
GI50 [15]: > 100 µM (inactive)
GI50 [16]: > 100 µM (inactive)
GI50 [17]: > 100 µM (inactive)
GI50 [18]: > 100 µM (inactive)
GI50 [19]: > 100 µM (inactive)
GI50 [57]: > 100 µM (inactive)
GI50 [58]: > 100 µM (inactive)
GI50 [20]: 0.0288 µM (active)
GI50 [21]: > 100 µM (inactive)
GI50 [23]: > 100 µM (inactive)
GI50 [24]: > 100 µM (inactive)
GI50 [25]: > 100 µM (inactive)
GI50 [26]: > 100 µM (inactive)
GI50 [27]: > 100 µM (inactive)
GI50 [28]: > 100 µM (inactive)
GI50 [29]: > 100 µM (inactive)
GI50 [30]: > 100 µM (inactive)
GI50 [31]: > 100 µM (inactive)
GI50 [32]: > 100 µM (inactive)
GI50 [33]: > 100 µM (inactive)
GI50 [59]: > 100 µM (inactive)
GI50 [34]: > 100 µM (inactive)
GI50 [35]: > 100 µM (inactive)
GI50 [37]: > 100 µM (inactive)
GI50 [38]: > 100 µM (inactive)
GI50 [39]: > 100 µM (inactive)
GI50 [40]: > 100 µM (inactive)
GI50 [41]: > 100 µM (inactive)
GI50 [42]: > 100 µM (inactive)
GI50 [43]: > 100 µM (inactive)
GI50 [44]: > 100 µM (inactive)
GI50 [45]: > 100 µM (inactive)
GI50 [46]: > 100 µM (inactive)
GI50 [47]: > 100 µM (inactive)
GI50 [48]: > 100 µM (inactive)
GI50 [49]: > 100 µM (inactive)
GI50 [50]: > 100 µM (inactive)
GI50 [51]: > 100 µM (inactive)
GI50 [52]: > 100 µM (inactive)
GI50 [53]: > 100 µM (inactive)
GI50 [54]: > 100 µM (inactive)
